*1 amine or outer side, *2 acyl side, *3 side chain or, on linkers, in order; H or OH if unused. Where a SMILES comes first, the peptide text is derived from it. Side-chain parts run from the residue outwards. [ ]: non-standard residue; d: D form. The star is where a group is joined. Ethylenediamine = C(CN[*:2])N[*:1]; Hyp = O=C(O)[CH]1C[CH](O)CN1; Phg = N[CH](C(=O)O)c1ccccc1; CO = O=C([*:1])[*:2]; Bn = c1ccc(C*)cc1
Tested on: Brown fat
Assay: Microarray gene expression profiling (HG-U95A), brown fat
Format: in vivo, cynomolgus monkeys
Method: Origin of tissue and processing. Male and female cynomolgus monkeys received subcutaneously pasireotide (100 μg/animal/day) or the vehicle for 14 days. On day 15, all animals were sacrificed and tissues for RNA extraction were immediately snap-frozen and kept at −80° C. until processing.
RNA expression profiling was conducted by means of the HG-U95A gene expression probe array (Affymetrix; Santa Clara, Calif. USA), containing more than 12,600 probe sets interrogating primarily full-length human genes and also some control probe sets. The experiment was conducted according to the recommendations of the manufacturer. Briefly, total RNA was obtained by acid guanidinium thiocyanate-phenol-chloroform extraction (Trizol®, Invitrogen Life Technologies, San Diego, Calif. USA) from each frozen tissue section. The total RNA was then purified on an affinity resin (Rneasy®, Qiagen) and quantified. Double stranded cDNA was synthesized with a starting amount of approximately 5 μg full-length total RNA using the Superscript® Choice System (Invitrogen Life Technologies, Carlsbad, Calif. USA) in the presence of a T7-(dT)24 DNA oligonucleotide primer. Following synthesis, the cDNA was purified by phenol/chloroform/isoamyl alcohol extraction and ethanol precipitation. The purified cDNA was then transcribed in vitro using the BioArray® High Yield RNA Transcript Labeling Kit (ENZO, Farmingdale, N.Y. USA) in the presence of biotinylated ribonucleotides form biotin labelled cRNA. The labelled cRNA was then purified on an affinity resin (Rneasy®, Qiagen), quantified and fragmented. An amount of approximately 10 μg labelled cRNA was hybridized for 16 hours at 45° C. to an expression probe array. The array was then washed and stained twice with streptavidin-phycoerythrin (Molecular Probes,) using the GeneChip® Fluidics Workstation 400 (Affymetrix, Santa Clara, Calif. USA). The array was then scanned twice using a confocal laser scanner (GeneArray® Scanner, Agilent, Palo Alto, Calif. USA) resulting in one scanned image. This resulting “.dat-file” was processed using the MAS4 program (Affymetrix) into a “.cel-file”. The “.cel file” was captured and loaded into the Affymetrix GeneChip® Laboratory Information Management System (LIMS). The LIMS database is connected to a UNIX Sun Solaris server through a network filing system that allows for the average intensities for all probes cells (CEL file) to be downloaded into an Oracle database (NPGN). Raw data was converted to expression levels using a “target intensity” of 150. The data were evaluated for quality control and loaded in the GeneSpring® software 4.2.4 (Silicon Genetics, Calif. USA) for analysis.
On the human Affymetrix HGU95Av2 chip, probe sets for individual genes contain 20 oligonucleotide pairs, each composed of a “perfect match” 25-mer and a “mismatch” 25-mer differing from the “perfect” match oligonucleotide at a single base. After probe labelling, hybridization, and laser scanning, the expression level was estimated by averaging the differences in signal intensity measured by oligonucleotide pairs of a given probe (AvgDiff value). The fold changes and directions were calculated for selected genes, from the differences of the AvgDiff values between controls and treated.
To identify genes that were impacted by pasireotide, the dataset was initially filtered to exclude in a first wave of analysis, genes whose values were systematically in the lower expression ranges where the experimental noise is high (at least 80 in a number of experiments corresponding to the smallest number of replicas of any experimental point). In a second round of selection a threshold p-value of 0.05 (based on a t-test) identified differences between treated and control based on a two component error model (Global Error Model) and, whenever possible, with a stepdown correction for multi-hypothesis testing (Benjamini and Hochberg false discovery rate). […]

[1] = ↑ vs control, 100 μg/animal/day s.c., 14 days
[2] = ↓ vs control, 100 μg/animal/day s.c., 14 days

SMILES: NCCCCC1NC(=O)C(Cc2c[nH]c3ccccc23)NC(=O)C(c2ccccc2)NC(=O)C2CC(OC(=O)NCCN)CN2C(=O)C(Cc2ccccc2)NC(=O)C(Cc2ccc(OCc3ccccc3)cc2)NC1=O (stereo not drawn) [Pasireotide, cyclo[4-(NH2—C2H4—NH—CO—O)Pro-Phg-DTrp-Lys-Tyr(4-Bzl)-Phe]] (cyclo(F[Hyp]([CO-Ethylenediamine])[Phg]WKY(Bn)); configuration not given here)
- IGF-1 expression level, AvgDiff (range) (0.1 mg/animal/14day): 389 (315 to 449)
- IGFBP 4 expression level, AvgDiff (range) (0.1 mg/animal/14day): 763 (429 to 1058)
- IRS 2 expression level, AvgDiff (range) (0.1 mg/animal/14day): 146 (80 to 222)
- SSTR3 expression level, AvgDiff (range) (0.1 mg/animal/14day): 194 (87 to 248)
- Adrenergic, β-3-, receptor transcript fold change [1]: receptor ↑ x2.5
- Apotosis-associated tyrosine kinase transcript fold change [1]: tyrosine kinase ↑ x3.5
- CD2 antigen (cytoplasmic tail)-binding protein 2 transcript fold change [1]: binding protein 2 ↑ x2.5
- CSF 3 receptor (granulocyte) transcript fold change [1]: (granulocyte) ↑ x3
- Ca++ channel, voltage dependent, α 1H subunit transcript fold change [1]: ↑ x3
- Cadherin 5, VE-cadherin (vascular epithelium) transcript fold change [1]: epithelium) ↑ x3
- Cyclin T2 transcript fold change [1]: Cyclin T2 ↑ x2.5
- Dopamine receptor D3 transcript fold change [1]: ↑ x2.5
- Dual specificity PP MKP-5 transcript fold change [1]: MKP-5 ↑ x2.5
- Endothelial differentiation, sphingolipid G-protein-coupled receptor, 5 transcript fold change [1]: ↑ x2.5
- FSHR transcript fold change [1]: FSHR ↑ x2.5
- Follistatin-like 3 glycoprotein transcript fold change [1]: glycoprotein ↑ x3
- G protein-activated inwardly rectifying K+ channel transcript fold change [1]: channel ↑ x3.5
- GLUR, metabotropic 1 transcript fold change [1]: ↑ x2
- Guanine nucleotide binding protein (G protein), β polypeptide 3 transcript fold change [1]: ↑ x2.5
- IFN induced transmembrane protein 1 transcript fold change [1]: 1 ↑ x2.5
- IL 3 (CSF, multiple) transcript fold change [1]: ↑ x2
- IL 5R, α transcript fold change [1]: IL 5R, α↑ x2.5
- IL 7R precursor transcript fold change [1]: IL 7R precursor ↑ x2
- IRS (insulin receptor substrate) 2 transcript fold change [1]: substrate) 2 ↑ x2.5
- Oxytocin, prepro-(neurophysin I) transcript fold change [1]: (neurophysin I) ↑ x2.5
- PI glycan, class L transcript fold change [1]: x3.5
- PLC β 4 transcript fold change [1]: PLC β 4 ↑ x2
- PP 5, catalytic subunit transcript fold change [1]: ↑ x2.5
- T3 receptor transcript fold change [1]: T3 receptor ↑ x2
- TGF β 3 transcript fold change [1]: TGF β 3 ↑ x2.5
- TGF β-activated kinase-binding protein 1 transcript fold change [1]: ↑ x2.5
- VGF nerve growth factor inducible transcript fold change [1]: factor inducible ↑ x2
- Actin related protein 2/3 complex, subunit 1A (41 kD) transcript fold change [2]: (41 kD) ↓ x2.5
- CSF 1 (macrophage) transcript fold change [2]: ↓ x2
- Cadherin 13, H-cadherin (heart) transcript fold change [2]: cadherin (heart) ↓ x2
- Cadherin F1B1 transcript fold change [2]: Cadherin F1B1 ↓ x4
- Calcium/calmodulin-dependent protein kinase I transcript fold change [2]: kinase I ↓ x3.5
- Capping protein (actin filament), gelsolin-like transcript fold change [2]: ↓ x2.5
- Coagulation factor XIIIAI subunit precursor transcript fold change [2]: ↓ x5
- EGF receptor pathway substrate 15 transcript fold change [2]: substrate 15 ↓ x2
- Endothelial cell GF 1 (platelet derived) transcript fold change [2]: (platelet derived) ↓ x2
- Extra spindle poles, S. cerevisiae, homologue of transcript fold change [2]: of ↓ x2.5
- Fms-related tyrosine kinase 1 (VEGF/vascular permeability factor receptor) transcript fold change [2]: factor receptor) ↓ x4.5
- G1 to S phase transition transcript fold change [2]: transition ↓ x1.5
- G protein-coupled receptor 1 transcript fold change [2]: receptor 1 ↓ x2.5
- G α inhibiting activity polypeptide 3 interacting protein transcript fold change [2]: protein ↓ x5
- IFNγ-inducible protein 30 (IP30) transcript fold change [2]: 30 (IP30) ↓ x3.5
- IGF-1 transcript fold change [2]: IGF-1 ↓ x1.5
- IGF-binding protein 4 transcript fold change [2]: ↓ x2
- Neuroblastoma apoptosis-related RNA binding protein transcript fold change [2]: binding protein ↓ x3
- Neuroblastoma transcript fold change [2]: Neuroblastoma ↓ x2.5
- PCNA transcript fold change [2]: PCNA ↓ x2.5
- PI glycan, class F transcript fold change [2]: PI glycan, class F ↓ x2
- PI-3-kinase. regulatory subunit, polypeptide 2 (p85 β) transcript fold change [2]: (p85 β) ↓ x3.5
- PP 2, regulatory subunit B (B56), γ isoform transcript fold change [2]: isoform ↓ x1.5
- Pentaxin-related gene, rapidly induced by IL-1 transcript fold change [2]: ↓ x7.5
- THR interactor 10 transcript fold change [2]: ↓ x3
- THR interactor 12 transcript fold change [2]: ↓ x1.5
- TNF type 1 receptor associated protein transcript fold change [2]: associated protein ↓ x2

— patent US20070275382A1, “Biomarkers for the Efficacy of Somatostatin Analogue Treatment” (priority 2003, published 2007)
